Test results taken from publication PMC5331433, “Ustiloxin G, a New Cyclopeptide Mycotoxin from Rice False Smut Balls” (Toxins, 2017).

What was measured:
HCT116 = assay: Cytotoxicity, MTT assay, HCT116; format: cell-based, human; conditions: 24 h treatment, absorbance 570 nm, three replicates
Protocol: (§1) Cytotoxicity of the compounds were tested against human carcinoma cells using the microculture methyl-thiazolyl-tetrazolium (MTT) assay as described previously. Briefly, the cell lines were maintained in a humidified atmosphere containing 5% CO2 at 37 °C. For preparing working solution, 1 μmol of each purified ustiloxin was dissolved in 10 mL of ultrapure water to obtain the stock solution (100 μM), which was further diluted to a series of concentrations (50, 25, 12.5, 6.25, 3.125, 1, 0.1, 1 × 10^−2, 1 × 10^−3, 1 × 10^−4, 1 × 10^−5 μM) with ultrapure water. Normally, 200 μL of the cell suspensions (5 × 10^4 cells/mL) was plated in 96-well culture plates at 37 °C. After 12 h, 20 μL of working solution was added to each well respectively and cultured at 37 °C for 24 h. Then, MTT was dissolved in saline to 5 mg/mL, and 20 μL of this solution was added to each well. After 4 h, the medium was removed, and then 100 μL of DMSO was added to dissolve any formazan crystals formed. Absorbance was then determined at 570 nm. The cell lines of colon cancer cells (HCT-116), non-small-cell lung carcinoma cells (NCI-H1650), gastric cancer cells (BGC-823), and liver hepatocellular carcinoma cells (HepG2) were tested for all isolated compounds. In addition, lung adenocarcinoma cells (A549) were tested on ustiloxins A (2), B (3), and G (1), and melanoma cells (A375) were tested on ustiloxin G (1). Ultrapure water and taxol were used as the negative and positive controls, respectively. All experiments were performed with three replicates.

NCI-H1650 = assay: Cytotoxicity, MTT assay, NCI-H1650; format: cell-based, human; conditions: 24 h treatment, absorbance 570 nm, three replicates
Protocol: as §1

BGC-823 = assay: Cytotoxicity, MTT assay, BGC-823; format: cell-based, human; conditions: 24 h treatment, absorbance 570 nm, three replicates
Protocol: as §1

HepG2 = assay: Cytotoxicity, MTT assay, HepG2; format: cell-based, human; conditions: 24 h treatment, absorbance 570 nm, three replicates
Protocol: as §1

A549 = assay: Cytotoxicity, MTT assay, A549; format: cell-based, human; conditions: 24 h treatment, absorbance 570 nm, three replicates
Protocol: as §1

A375 = assay: Cytotoxicity, MTT assay, A375; format: cell-based, human; conditions: 24 h treatment, absorbance 570 nm, three replicates
Protocol: as §1, with “Ultrapure water and taxol were used as the negative and positive controls, respectively. All experiments were performed with three replicates.” left out

[1] = test system: rice (Oryza sativa) seeds, radicle; assay: Inhibition of radicle elongation of rice seeds; conditions: 48 h, 25 °C, dark, mean of triplicate ± SD
Protocol: (§2) Phytotoxicity of the compounds was evaluated by their inhibitory activities on the radicle and germ elongation of rice (Oryza sativa) seeds. Two varieties (Lijiang and Zhonghua 11) of the seeds, which were obtained from Prof. Zejian Guo (Department of Plant Pathology and collected in 2015, China Agricultural University) were used.
(§3) The bioassay was performed using the method described previously with some modifications. Briefly, five 3-day germinated rice seeds of each rice variety were sown onto each well of a 24-well plate, containing 200 μL of working solution. For preparing working solution, 1 mg of each purified compound was dissolved in 1 mL of ultrapure water to obtain the stock solution (1 mg/mL), which was further diluted to a series of concentrations (200, 100, 50, 20, and 10 μg/mL) with ultrapure water. The ultrapure water was used as the negative control, and glyphosate (N-(phosphonomethyl)glycine) at the same concentrations as the positive control. Plates were incubated in a moist chamber at 25 °C in the dark. The length of each radicle or germ was measured after treatment for 48 h. The inhibition of radicle or germ elongation was calculated as follows: Inhibition (%) = [(Lc − Lt)/Lc] × 100, where Lc is the radicle or germ length of the control group, and Lt is the length of the treated group.
(§4) All experiments were performed with three replicates, and the results were represented by their mean values and the standard deviations (SD). The data were carried out using analysis of variance (one-way ANOVA) to detect significant differences by PROC ANOVA of SAS version 8.2.

[2] = test system: rice (Oryza sativa) seeds, germ; assay: Inhibition of germ elongation of rice seeds; conditions: 48 h, 25 °C, dark, mean of triplicate ± SD
Protocol: as §2, §3, §4

rice seedlings = assay: Abnormal swelling of roots and germs of rice seedlings; set-up: species or system Oryza sativa; conditions: observation in words; Figure 3B shows 200 µg/mL of ustiloxin G, variety Lijiang
Protocol: as §3

[3] = non-small-cell lung carcinoma cells
[4] = liver hepatocellular carcinoma cells

SMILES	IC50 (HCT116; colon cancer cells)	IC50 (NCI-H1650; [3])	IC50 (BGC-823; gastric cancer cells)	IC50 (HepG2; [4])	IC50 (A549; lung adenocarcinoma cells)	Inhibition Ratio (%) Seed Radicle Var. Lijiang ([1]; 10 µg/mL)	Inhibition Ratio (%) Seed Radicle Var. Zhonghua 11 ([1]; 10 µg/mL)	Inhibition Ratio (%) Seed Radicle Var. Lijiang ([1]; 20 µg/mL)	Inhibition Ratio (%) Seed Radicle Var. Zhonghua 11 ([1]; 20 µg/mL)	Inhibition Ratio (%) Seed Radicle Var. Lijiang ([1]; 50 µg/mL)	Inhibition Ratio (%) Seed Radicle Var. Zhonghua 11 ([1]; 50 µg/mL)	Inhibition Ratio (%) Seed Radicle Var. Lijiang ([1]; 100 µg/mL)	Inhibition Ratio (%) Seed Radicle Var. Zhonghua 11 ([1]; 100 µg/mL)	Inhibition Ratio (%) Seed Radicle Var. Lijiang ([1]; 200 µg/mL)	Inhibition Ratio (%) Seed Radicle Var. Zhonghua 11 ([1]; 200 µg/mL)	Inhibition Ratio (%) Seed Germ Var. Lijiang ([2]; 10 µg/mL)	Inhibition Ratio (%) Seed Germ Var. Zhonghua 11 ([2]; 10 µg/mL)	Inhibition Ratio (%) Seed Germ Var. Lijiang ([2]; 20 µg/mL)	Inhibition Ratio (%) Seed Germ Var. Zhonghua 11 ([2]; 20 µg/mL)	Inhibition Ratio (%) Seed Germ Var. Lijiang ([2]; 50 µg/mL)	also measured
CC(=O)O[C@H]1C(=O)[C@@]2(C)[C@H]([C@H](OC(=O)c3ccccc3)[C@]3(O)C[C@H](OC(=O)[C@H](O)[C@@H](NC(=O)c4ccccc4)c4ccccc4)C(C)=C1C3(C)C)[C@]1(OC(C)=O)CO[C@@H]1C[C@@H]2O [Taxol, reference compound]																					IC50 (HCT116; Homo sapiens, HCT-116, colon cancer cells): 0.0019 µM; IC50 (NCI-H1650; Homo sapiens, NCI-H1650, non-small-cell lung carcinoma cells): 1.1 µM; IC50 (BGC-823; Homo sapiens, BGC-823, gastric cancer cells): 0.000107 µM; IC50 (HepG2; Homo sapiens, HepG2, liver hepatocellular carcinoma cells): 0.0146 µM; IC50 (A549; Homo sapiens, A549, lung adenocarcinoma cells): 0.023 µM; IC50 (A375; Homo sapiens, A-375, melanoma cells): 0.022 µM
CC[C@@]1(C)Oc2cc(c([S+]([O-])CCO)cc2O)[C@@H](O)[C@H](NC)C(=O)N[C@@H](C(C)C)C(=O)N[C@@H]1C(=O)NCC(=O)O (some centres unmarked) [Ustiloxin G (1), ustiloxin G]	> 50 µM	> 50 µM	> 50 µM	> 50 µM	36.5 µM	12.56%	27.27%	17.00%	31.67%	37.64 ± 1.21 g %	54.14 ± 4.20 d %	90.33%	90.16 ± 3.62 a %	95.19 ± 1.92 a %	93.40 ± 1.91 a %	2.74 ± 4.76 l %	14.11%	8.89%	14.68%	27.96 ± 3.32 f %	IC50 (A375; melanoma cells): 22.5 µM; Inhibition Ratio (%) Seed Germ Var. Zhonghua 11 ([2]; 50 µg/mL): 36.29%; Inhibition Ratio (%) Seed Germ Var. Lijiang ([2]; 100 µg/mL): 36.95 ± 5.23 e %; Inhibition Ratio (%) Seed Germ Var. Zhonghua 11 ([2]; 100 µg/mL): 39.33%; Inhibition Ratio (%) Seed Germ Var. Lijiang ([2]; 200 µg/mL): 65.01%; Inhibition Ratio (%) Seed Germ Var. Zhonghua 11 ([2]; 200 µg/mL): 50.45%; abnormal swelling of the roots and germs of rice seedlings (rice seedlings): abnormal swelling
CC[C@@]1(C)Oc2cc(c([S+]([O-])C[C@@H](O)C[C@H](N)C(=O)O)cc2O)[C@@H](O)[C@H](NC)C(=O)N[C@@H](C)C(=O)N[C@@H]1C(=O)NCC(=O)O (some centres unmarked) [Ustiloxin B (3), ustiloxin B]	7.2 µM	21.6 µM	1.03 µM	13 µM	> 50 µM	4.16 ± 0.66 l %	11.90 ± 6.45 l %	14.27%	20.22%	53.24 ± 4.98 e %	54.78 ± 3.09 d %	86.62 ± 1.98 b %	87.80%	95.32 ± 1.32 a %	93.04 ± 2.10 a %	13.54%	3.30%	20.63%	12.02%	37.98 ± 3.83 e %	Inhibition Ratio (%) Seed Germ Var. Zhonghua 11 ([2]; 50 µg/mL): 35.60%; Inhibition Ratio (%) Seed Germ Var. Lijiang ([2]; 100 µg/mL): 49.65 ± 2.13 d %; Inhibition Ratio (%) Seed Germ Var. Zhonghua 11 ([2]; 100 µg/mL): 44.72%; Inhibition Ratio (%) Seed Germ Var. Lijiang ([2]; 200 µg/mL): 64.39%; Inhibition Ratio (%) Seed Germ Var. Zhonghua 11 ([2]; 200 µg/mL): 55.61 ± 2.75 a %; abnormal swelling of the roots and germs of rice seedlings (rice seedlings): abnormal swelling
